Measured values published in patent US20230159509A1 (Amathus Therapeutics, Inc., priority 2020, published 2023).

Target: T1, TRAP1 enzyme (Homo sapiens, UniProt Q12931)
T1 construct: 150 nM Trap1 enzyme was incubated with various concentrations of the test compound
T1 sequence (Q12931 60-704): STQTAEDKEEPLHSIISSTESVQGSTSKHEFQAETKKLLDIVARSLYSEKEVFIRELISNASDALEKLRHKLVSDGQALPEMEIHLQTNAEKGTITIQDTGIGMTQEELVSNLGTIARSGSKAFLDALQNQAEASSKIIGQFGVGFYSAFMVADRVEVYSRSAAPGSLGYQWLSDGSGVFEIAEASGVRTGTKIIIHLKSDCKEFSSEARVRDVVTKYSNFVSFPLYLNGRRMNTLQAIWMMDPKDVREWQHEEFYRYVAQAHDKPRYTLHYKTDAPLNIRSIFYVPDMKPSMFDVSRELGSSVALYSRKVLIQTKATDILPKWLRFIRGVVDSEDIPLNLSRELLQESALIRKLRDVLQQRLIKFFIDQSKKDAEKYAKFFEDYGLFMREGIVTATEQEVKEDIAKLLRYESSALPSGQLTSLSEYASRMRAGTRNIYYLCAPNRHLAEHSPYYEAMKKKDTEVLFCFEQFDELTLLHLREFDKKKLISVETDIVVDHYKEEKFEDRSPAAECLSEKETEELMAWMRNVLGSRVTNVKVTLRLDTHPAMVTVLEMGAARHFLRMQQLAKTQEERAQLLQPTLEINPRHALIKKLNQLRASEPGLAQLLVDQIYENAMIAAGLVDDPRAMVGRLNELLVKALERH
Assay: ADP Glo assay of TRAP1 ATPase activity
Type: biochemical
Details: for activation at 50 µM: 1 h, compound concentration 50 μM, read-out: ADP-Glo Percent Activation at 50 μM; for EC50: concentration for half maximal activation, read-out: ADP GLO DRC: GeoMean EC50; for Emax: maximal percent activation, read-out: ADP GLO DRC: Mean Emax
Experimental: Potency of test compounds to modulate the ATPase activity of TRAP1 enzyme was evaluated using ADP Glo assay. The assay is based on quantification of the ADP generated from ATP in the ATPase reaction. The assay is performed in two steps; first, after the ATPase reaction an equal volume of ADP-Glo™ Reagent is added to terminate the ATPase reaction and deplete the remaining ATP. Second, the Kinase Detection Reagent is added to simultaneously convert ADP to ATP and allow the newly synthesized ATP to be measured using a luciferase/luciferin reaction.
All the assays were carried out in a 384-well Proxiplate. The buffer used was 25 mM Pipes pH-7.5, 40 mM KCl, 0.05 mM MgCl2, 0.025% BSA, 0.316 mM EGTA, 0.003% Empigen, 0.01% Igepal. 150 nM Trap1 enzyme was incubated with various concentrations of the test compound (0.79 μM-100 μM) at 37° C. for 30 mins (except in blank wells). 20 μM ATP was added to each well to start the reaction. The plate was spun for 1 min at 1200 rpm and then incubated at 37° C. for 60 mins. 5 μl of ADP Glo reagent was added to all the wells and spun the plate for 1 min at 1200 rpm and kept it on a shaker at ambient temperature for 60 mins. 10 μl of kinase detection mix was added to all the wells and the plate was read for Luminescence at 495 nm. The amount of ADP released was estimated from ATP/ADP standard curve generated at the same experimental conditions. Emax (Maximal percent activation) and EC50 (concentration for half maximal activation) were estimated by fitting the dose response data to a sigmoidal curve fitting equation using Graphpad Prism software V. 8.

activation at 50 µM [%] | EC50 [µM] | Emax [%] | SMILES
181 to 352 | – | – | COc1ncc(NC(=O)c2cc(Cl)n[nH]2)cc1S(=O)(=O)Nc1c(C)cccc1C [compound 2730]
– | 20 to 100 | 160 to 199 | COc1ncc(NC(=O)c2ncc(-c3ccccc3)o2)cc1S(=O)(=O)Nc1c(C)c(-c2ccccc2)nn1C [compound 1661]
– | 20 to 100 | 119 to 159 | COc1ncc(NC(=O)c2cn(C)c3ncccc23)cc1S(=O)(=O)Nc1ccc(Cl)cc1 [compound 1359, N-(5-(N-(4-chlorophenyl)sulfamoyl)-6-methoxypyridin-3-yl)-1-methyl-1H-pyrrolo [2,3-b]pyridine-3-carboxamide]
– | 20 to 100 | 119 to 159 | COc1ncc(NC(=O)C(C)n2cc(Br)cn2)cc1S(=O)(=O)Nc1ccc(Cl)cc1 (stereo not drawn) [compound 1213, (4-bromo-1H-pyrazol-1-yl)-N-(5-(N-(4-chlorophenyl)sulfamoyl)-6-methoxypyridin-3-yl)propanamide]
120 to 150 | – | – | COc1ncc(NC(=O)c2oncc2C)cc1S(=O)(=O)Nc1c(C)cccc1C [compound 2708]
181 to 352 | – | – | COc1ncc(NC(=O)c2n[nH]c3c2CCCC3)cc1S(=O)(=O)Nc1c(C)cccc1C [compound 2736]
– | 20 to 100 | 160 to 199 | COc1ncc(NC(=O)c2csc3c2CNCC3)cc1S(=O)(=O)Nc1c(C)cccc1C [compound 1972, N-(5-(N-(2,6-dimethylphenyl)sulfamoyl)-6-methoxypyridin-3-yl)-4,5,6,7-tetrahydrothieno[3,2-c]pyridine-3-carboxamide]
181 to 352 | – | – | COc1ncc(NC(=O)c2nnsc2C(C)C)cc1S(=O)(=O)Nc1c(C)cccc1C [compound 2734]
120 to 150 | – | – | COc1ncc(NC(=O)c2cnn(CC(F)(F)F)c2)cc1S(=O)(=O)Nc1c(C)cccc1C [compound 2684]
181 to 352 | – | – | CCCc1cc(C(=O)Nc2cnc(OC)c(S(=O)(=O)Nc3c(C)cccc3C)c2)nn1C [compound 2618]
181 to 352 | – | – | COc1cccc(C(=O)Nc2cnc(OC)c(S(=O)(=O)Nc3c(C)cccc3C)c2)n1 [compound 2583]
120 to 150 | – | – | CCOc1c(C(=O)Nc2cnc(OC)c(S(=O)(=O)Nc3c(C)cccc3C)c2)cnn1C [compound 2675]
151 to 180 | – | – | COc1ncc(NC(=O)c2nnsc2C2CC2)cc1S(=O)(=O)Nc1c(C)cccc1C [compound 2758]
151 to 180 | – | – | COc1ncc(NC(=O)c2ccccc2N2CCOCC2)cc1S(=O)(=O)Nc1c(C)cccc1C [compound 2602]
– | < 10 | 200 to 300 | COc1ncc(NC(=O)c2coc(-c3ccccc3)n2)cc1S(=O)(=O)Nc1ccc(F)cc1C(C)C [compound 2381]
120 to 150 | – | – | COc1ncc(NC(=O)c2ccn(C)n2)cc1S(=O)(=O)Nc1c(C)cccc1C [compound 2586]
120 to 150 | – | – | COc1ncc(NC(=O)c2cnsn2)cc1S(=O)(=O)Nc1c(C)cccc1C [compound 2569]
– | 20 to 100 | 160 to 199 | COc1ncc(NC(=O)c2c[nH]c(C(F)(F)F)n2)cc1S(=O)(=O)Nc1c(C)cccc1C [compound 2474]
181 to 352 | – | – | COc1ncc(NC(=O)c2cc(C)sn2)cc1S(=O)(=O)Nc1c(C)cccc1C [compound 2716]
151 to 180 | – | – | COc1ncc(NC(=O)c2nn(C)cc2F)cc1S(=O)(=O)Nc1c(C)cccc1C [compound 2624]
120 to 150 | – | – | COCCn1ccc(C(=O)Nc2cnc(OC)c(S(=O)(=O)Nc3c(C)cccc3C)c2)n1 [compound 2665]
181 to 352 | – | – | COc1ncc(NC(=O)c2ccc3c(c2)CC(=O)N3)cc1S(=O)(=O)Nc1c(C)cccc1C [compound 2523]

activation at 50 µM [%] | EC50 [µM] | Emax [%] | SMILES
120 to 150 | – | – | COc1ncc(NC(=O)c2ccns2)cc1S(=O)(=O)Nc1c(C)cccc1C [compound 2617]
– | 20 to 100 | 200 to 300 | COc1ncc(NC(=O)c2cn(C)c3ncccc23)cc1S(=O)(=O)Nc1c(C)cccc1C [compound 1395, N-(5-(N-(2,6-dimethylphenyl)sulfamoyl)-6-methoxypyridin-3-yl)-1-methyl-1H-pyrrolo[2,3-b]pyridine-3-carboxamide]
120 to 150 | – | – | COc1ncc(NC(=O)c2conc2C)cc1S(=O)(=O)Nc1c(C)cccc1C [compound 2706]
120 to 150 | – | – | COc1ncc(NC(=O)c2cc3c(s2)CCC3)cc1S(=O)(=O)Nc1c(C)cccc1C [compound 2792]
181 to 352 | – | – | COc1ncc(NC(=O)c2c3c(nn2C)CCC3)cc1S(=O)(=O)Nc1c(C)cccc1C [compound 2528]
181 to 352 | – | – | COc1ncc(NC(=O)c2cccc(NC(=O)N(C)C)c2)cc1S(=O)(=O)Nc1c(C)cccc1C [compound 2784]
– | 20 to 100 | 119 to 159 | COc1ncc(NC(=O)c2ncc(-c3ccccc3)o2)cc1S(=O)(=O)Nc1cc2ccccc2nc1C [compound 1511]
– | < 10 | 200 to 300 | COc1ncc(NC(=O)c2coc(-c3ccccc3)n2)cc1S(=O)(=O)Nc1c(C)cccc1C [compound 1312, N-(5-(N-(2,6-dimethylphenyl)sulfamoyl)-6-methoxypyridin-3-yl)-2-phenyloxazole-4-carboxamide]
151 to 180 | – | – | COc1ncc(NC(=O)c2n[nH]cc2C)cc1S(=O)(=O)Nc1c(C)cccc1C [compound 2756]
151 to 180 | – | – | COc1ncc(NC(=O)c2ccc(CN3CCCCC3)cc2)cc1S(=O)(=O)Nc1c(C)cccc1C [compound 2770]
– | < 10 | 160 to 199 | COc1ncc(NC(=O)c2csc(-c3ccccc3)n2)cc1S(=O)(=O)N(CC(O)CO)c1ccc(Cl)cc1 (stereo not drawn) [compound 2431]
– | 20 to 100 | 200 to 300 | COc1ncc(NC(=O)c2ncc(-c3ccccc3)o2)cc1S(=O)(=O)Nc1cc(F)c(C)cc1C#N [compound 1898]
151 to 180 | – | – | COc1ncc(NC(=O)c2cn(C)nc2C(F)(F)F)cc1S(=O)(=O)Nc1c(C)cccc1C [compound 2608]
– | 10 to 20 | > 300 | COc1ncc(NC(=O)c2ccnc(-c3cccnc3)c2)cc1S(=O)(=O)Nc1c(C)cccc1C [compound 1940, N-(5-(N-(2,6-dimethylphenyl)sulfamoyl)-6-methoxypyridin-3-yl)-[2,3′-bipyridine]-4-carboxamide]
– | < 10 | 160 to 199 | COc1ncc(NC(=O)c2csc(-c3cccc(Cl)n3)n2)cc1S(=O)(=O)Nc1c(C)cccc1C [compound 2445]
151 to 180 | – | – | CCN(CC)S(=O)(=O)c1ccc(C(=O)Nc2cnc(OC)c(S(=O)(=O)Nc3c(C)cccc3C)c2)cc1 [compound 2642]
– | 20 to 100 | 160 to 199 | COc1ncc(NC(=O)c2ncc(-c3ccccc3)o2)cc1S(=O)(=O)Nc1cc(F)c(F)cc1F [compound 1503]
– | 20 to 100 | > 300 | COc1ncc(NC(=O)c2csc(-c3ccccc3)n2)cc1S(=O)(=O)Nc1ncc(Cl)cn1 [compound 1383, N-(5-(N-(5-chloropyrimidin-2-yl)sulfamoyl)-6-methoxypyridin-3-yl)-2-phenylthiazole-4-carboxamide]
– | < 10 | 160 to 199 | COc1ncc(NC(=O)c2coc(-c3ccccc3)n2)cc1S(=O)(=O)Nc1c(C2CC2)cccc1C1CC1 [compound 2497]
– | 10 to 20 | 200 to 300 | COc1ncc(NC(=O)c2ncc(-c3ccccc3)o2)cc1S(=O)(=O)Nc1c(C(C)C)ccnc1C(C)C [compound 1808]
120 to 150 | – | – | COc1ncc(NC(=O)c2cncn2C)cc1S(=O)(=O)Nc1c(C)cccc1C [compound 2632]
